# Experimental data: ChEMBL document CHEMBL5154641, “Targeting transthyretin in Alzheimer's disease: Drug discovery of small-molecule chaperones as disease-modifying drug candidates for Alzheimer's disease” (Eur J Med Chem, 2021)
# Activity calls are given as the source filed them. No cut-off for these calls is given here.
# Columns and labels:
# [1] = target: Transthyretin (Homo sapiens) (UniProt P02766); test: Displacement of [125I]-T4 from human recombinant TTR expressed in Escherichia coli BL21(DE3) Star by gamma spectrometric analysis
# [2] = Binding affinity to wild type TTR/Amyloid beta (1 to 40 residues) binary complex (unknown origin) assessed as complex dissociation constant by isothermal titration calorimetry; design: species or system Homo sapiens
# [3] = species: Homo sapiens; test: Binding affinity to wild type TTR/Amyloid beta (1 to 40 residues) binary complex (unknown origin) assessed as Gibbs free energy change for binary complex by isothermal titration calorimetry
# [4] = species: Homo sapiens; test: Binding affinity to wild type TTR/Amyloid beta (1 to 40 residues) binary complex (unknown origin) assessed as change in enthalpy binary by isothermal titration calorimetry
# [5] = species: Homo sapiens; test: Binding affinity to wild type TTR/Amyloid beta (1 to 40 residues) binary complex (unknown origin) assessed as change in entropy for binary complex by isothermal titration calorimetry
# [6] = tested on: SH-SY5Y; test: Neuroprotective activity against amyloid beta (1 to 42 residues)-induced cell injury in human SH-SY5Y cells assessed as reduction in caspase 3 level; type: functional, cell-based
Compound,Activity [1],Kd [2],deltaG [3],deltaH [4],-TdeltaS [5],Activity [6]
O=C(O)c1cc(/N=N/c2cccc([N+](=O)[O-])c2)ccc1O,Active,–,–,–,–,–
CCc1ccc(CCOc2ccc(CC3SC(=O)NC3=O)cc2)nc1 (stereo not drawn),Active,–,–,–,–,–
COc1ccccc1Oc1ccc(N(Cc2cccnc2)S(=O)(=O)CC(F)(F)F)cc1,Active,–,–,–,–,–
CC/C(=C(/CC)c1ccc(O)cc1)c1ccc(O)cc1,Active,–,–,–,–,–
Oc1c(I)cc(I)cc1I,Active,–,–,–,–,–
C=Cc1cc2oc(-c3ccc(O)c(F)c3)nc2cc1O,Active,–,–,–,–,–
O=C(O)c1cc(/N=N/c2cccc([N+](=O)[O-])c2)cc(I)c1O,Active,–,–,–,–,–
O=C(O)c1cc(-c2ccc3ccccc3c2)cc(I)c1O,Active,–,–,–,–,–
O=C(O)CCNC(=O)CCNC(=O)c1cc(-c2ccc(F)cc2F)cc(I)c1O,Active,–,–,–,–,–
CC1=C(CC(=O)O)c2cc(F)ccc2/C1=C\c1ccc([S+](C)[O-])cc1 (stereo not drawn) [SULINDAC],–,3420 nM,-8.15 kcal/mol,-3.23 kcal/mol,-4.92 kcal/mol,–
O=c1cc(-c2ccc(O)c(O)c2)oc2cc(O)cc(O)c12 [LUTEOLIN],Active,1520 nM,-7.93 kcal/mol,-0.53 kcal/mol,7.3 kcal/mol,Active
O=C(O)c1ccc2nc(-c3cc(Cl)cc(Cl)c3)oc2c1,Active,–,–,–,–,–
CCCCN(CCCC)C[C@H](O)c1cc(Cl)cc2c1-c1ccc(Cl)cc1/C2=C/c1ccc(Cl)cc1,Active,–,–,–,–,–
O=C(O)c1cc(-c2ccc(F)cc2F)cc(I)c1O,Active,–,-7.67 kcal/mol,-1.54 kcal/mol,-6.13 kcal/mol,Active
O=C(O)c1cc(/N=N/c2ccc(O)c(C(=O)O)c2)ccc1O [OLSALAZINE],–,810 nM,-8.7 kcal/mol,-8.72 kcal/mol,0.02 kcal/mol,Active
Oc1c(I)cc(Cl)c2cccnc12,Active,–,–,–,–,–
O=C(O)c1ccccc1Nc1cccc(C(F)(F)F)c1 [FLUFENAMIC ACID],–,2340 nM,-8.28 kcal/mol,-3.66 kcal/mol,4.62 kcal/mol,Active
Cc1ccc(C(=O)c2cc(O)c(O)c([N+](=O)[O-])c2)cc1,Active,–,–,–,–,–
